Legend:
[1] = test system: Casein; experiment: coagulation in casein-containing preparations with calcium salts (150 mg elemental calcium); assay type: physicochemical; conditions: room temperature
[2] = visual test of transparency for calcium-oxalate crystal formation in hot black tea with calcium salt (100 mg elemental calcium); assay type: physicochemical; conditions: 240 ml hot black tea
Method: The data describes the effect of different levels of Mg and ascorbic acid (vitamin C) on appearance of visible calcium oxalate precipitation. The experiments were performed with various soluble calcium salts by adding different levels of ascorbic acid and Magnesium citrate and testing the impact on formation of calcium-oxalate crystals in tea preparations. […] The calcium salt mixture was added and stirred into a cup holding 240 ml of hot black tea made with boiling tap water. A visual test of transparency was made at 5, 10, 15 and 20 minutes after adding the mixture to the tea for determining any impact on solution clarity by formation of calcium-oxalate crystals. If visible crystals were formed within 10 minutes the result was determined “unacceptable”, if visible crystals were formed between 10-20 minutes then the results was marked “borderline”. If no crystals were visible within 20 minutes the result was marked “acceptable”. FIGS. 1-5 show the experimental results for various calcium salts. In each of the figures the X-axis marks the amount of Magnesium Citrate (mg) and the Y-axis marks the amount of ascorbic acid (mg). Each indicia of a circle, diamond or square signifies the experimental outcome of a separate experiment; circles indicate an acceptable outcome, diamonds indicate a borderline acceptable (less than optimal) outcome, and squares indicate an unacceptable outcome.

[3] = casein-containing non-dairy creamer in water

SMILES: O=P([O-])([O-])O.[K+].[K+] [PP, Potassium phosphate dibasic anhydrous]
- level sufficient to limit the coagulation to a minimal and acceptable change in appearance [1, 3]: 825 mg
- lowest level required for preventing coagulation [1, 3]: 3000 mg
- lowest level that prevented coagulation ([1]; half & half (mix of milk and cream)): 500 mg
- amount sufficient to prevent coagulation ([1]; whole milk (about 3% fat)): 10 mg

SMILES: O=C1O[C@H]([C@@H](O)CO)C(O)=C1O [ascorbic acid]
- minimal amount of ascorbic acid required to delay or prevent calcium oxalate formation ([2]; in general across calcium salts (FIGS. 1-5)): 30 mg

SMILES: CC(=O)[O-].CC(=O)[O-].[Ca+2] [calcium acetate, Calcium diacetate]
- need for additives to delay or prevent calcium oxalate formation, by calcium salt ([2]; ascorbic acid with or without Magnesium Citrate): additional “competing salt” is required even with higher level of ascorbic acids
